Values quoted from earlier work as cited in patent publication US20070196463A1, “Enteric Soft Gelatin Capsule Containing Esomerpazole And Method Of Preparation” (Natco Pharma Limited, priority 2004, published 2007).

## COc1ccc2nc([S@@+]([O-])Cc3ncc(C)c(OC)c3C)[nH]c2c1 [esomeprazole]
Human testing of enantiomers of omeprazole
  activity of the enantiomer in human testing: more active
human, due to more consistent pharmacokinetics
  inter-individual variability: reduced
